For 26 compounds, LC retention time results are on record in the RepoRT retention time repository.

Common to all, as to conditions: stereoisomer not certain
Data set [1] in a line: RP, Waters ACQUITY UPLC HSS T3, 0.4 mL/min; A: water + 0.01% formic acid; B: 50% water + 50% acetonitrile + 0.01% formic acid; gradient (min/%B) 0/0 0.5/0 9/30 10/50 15/100 16/100 17/0 25/0.
Data set [2] can be described thus: HILIC, Waters Atlantis Premier BEH Z-HILIC, 100 × 2.1 mm, 1.7 µm, 40 °C, 0.15 mL/min, estimated dead time 1.5 min; A: water + 20 mM ammonium carbonate + 5 µM medronic acid; B: 10% water + 90% acetonitrile + 2 mM ammonium carbonate + 0.5 µM medronic acid; gradient (min/%B) 0/95 18/50 18.1/20 21.5/20 22/95 23.5/95 25.5/95.
Data set [3] is described as follows: HILIC, Waters Atlantis Premier BEH Z-HILIC, 100 × 2.1 mm, 1.7 µm, 40 °C, 0.15 mL/min, estimated dead time 1.5 min; A: water + 20 mM ammonium carbonate + 5 µM medronic acid; B: 10% water + 90% acetonitrile + 2 mM ammonium carbonate + 0.5 µM medronic acid; gradient (min/%B) 0/97 18/55 18.1/20 21.5/20 22/97 23.5/97 25.5/97.
A short description of data set [4]: RP, Waters ACQUITY UPLC BEH C18, 100 × 2.1 mm, 1.7 µm, 35 °C, 0.3 mL/min, estimated dead time 0.73 min; A: water + 0.1% formic acid, pH 3; B: methanol; gradient (min/%B) 0/10 1.6/10 2/20 6/70 7/70 14/90 17.5/90 18/95 21/95.
Data set [5] in a line: RP, Waters ACQUITY UPLC BEH C18, 100 × 2.1 mm, 1.7 µm, 35 °C, 0.3 mL/min, estimated dead time 0.73 min; A: water + 0.1% formic acid, pH 3; B: methanol; gradient (min/%B) 0/0 1.6/0 2/20 6/70 7/70 14/90 17.5/90 18/95 21/95.
The nature of data set [6]: RP, Waters ACQUITY UPLC BEH C18, 100 × 2.1 mm, 1.7 µm, 35 °C, 0.25 mL/min, estimated dead time 0.88 min; A: water + 0.1% acetic acid, pH 3; B: acetonitrile; gradient (min/%B) 0/10 1/10 2.5/15 4/22 6/38 9/65 12/80 16/100 19/100.

`COC1C(O)C(CO)OC1n1cnc2c(N)ncnc21` (configuration not stated) [2'-O-methyladenosine]: the LC retention time in data set [1] worked out at 5.78 min.

Regarding `COC1C(O)C(CO)OC1n1cnc2c(=O)[nH]c(N)nc21` (configuration not stated) [2'-O-methylguanosine], in data set [1], the LC retention time is 5.34 min.

With `COC1C(c2c[nH]c(=O)[nH]c2=O)OC(CO)C1O` (configuration not stated) [2'-O-methylpseudouridine], the LC retention time in data set [1] was 4.95 min.

For the compound `COC1C(O)C(CO)OC1n1ccc(=O)[nH]c1=O` (configuration not stated) [2'-O-methyluridine], in data set [1], the LC retention time is 4.79 min.

`O=C(O)CCC(=O)C(=O)O` [2-Oxoglutaric acid]: the LC retention time in data set [2] was 8.54 min; in data set [3] it was 9.47 min.

Consider `O=C(O)CCC(O)C(=O)O` (configuration not stated) [2-hydroxy glutaric acid], for which the LC retention time was 8.97 min in data set [2] and 10 min in data set [3].

Turning to `CCCC(=O)OC(CC(=O)[O-])C[N+](C)(C)C` (configuration not stated) [Butyrylcarnitine], the LC retention time in data set [4] is 2.75 min.

As for `O=C(O)CC(O)(CC(=O)O)C(=O)O` [Citric acid], the LC retention time was 12.9 min in data set [2] and 14.1 min in data set [3].

Take `NC(CCC(=O)NC(CS)C(=O)NCC(=O)O)C(=O)O` (configuration not stated) [Glutathione]: the LC retention time in data set [5] is 2 min; in data set [4] it was 1 min.

For `O=C(O)CC(C(=O)O)C(O)C(=O)O` (configuration not stated) [Isocitric acid], the LC retention time in data set [2] is 12.6 min; in data set [3], 13.9 min.

`CC(O)C(=O)O` (configuration not stated) [Lactic acid]: the LC retention time in data set [4] was 1.11 min.

For the compound `CC(C)CC(N)C(=O)O` (configuration not stated) [Leucine], in data set [4], the LC retention time was 1.62 min.

Turning to `CC(=O)NC(Cc1ccccc1)C(=O)O` (configuration not stated) [N-acetylphenylalanine], the LC retention time in data set [6] was 5 min.

As to `CC(C)CC(NC(=O)C(C)O)C(=O)O` (configuration not stated) [N-lactoyl-leucine], the LC retention time in data set [6] is 5 min.

In the case of `NC(CCC(=O)NC(CSSCC(NC(=O)CCC(N)C(=O)O)C(=O)NCC(=O)O)C(=O)NCC(=O)O)C(=O)O` (configuration not stated) [Oxidized glutathione], the LC retention time in data set [5] was 3 min; in data set [4], 1.04 min.

Turning to `C=C(OP(=O)(O)O)C(=O)O` [PEP], the values for the LC retention time in data set [2] and in data set [3] were 12.5 min and 13.8 min, respectively.

Consider `NC(Cc1ccccc1)C(=O)O` (configuration not stated) [Phenylalanine], for which the LC retention time in data set [6] was 2 min.

In the case of `O=C(O)C(CO)OP(=O)(O)O` (configuration not stated) [Phosphoglyceric acid A], the LC retention time in data set [2] is 11.6 min; in data set [3], 12.9 min.

In the case of `NC(CCC(=O)NC(CSCO)C(=O)NCC(=O)O)C(=O)O` (stereo not drawn) [S-(Hydroxymethyl)glutathione], in data set [5], the LC retention time is 1.7 min.

Consider `O=C(O)CCC(=O)O` [Succinic Acid], for which the LC retention time in data set [2] is 9.06 min; in data set [3], 10 min.

On to `O=C(CO)COP(=O)(O)O` [Triose phosphate], for which the LC retention time in data set [2] is 9.62 min; in data set [3], 10.7 min.

For the compound `Nc1ncnc2c1ncn2C1OC(CO)C(O)C1O` (configuration not stated) [adenosine], the LC retention time in data set [1] worked out at 4.57 min.

As to `CCC(=O)OC(CC(=O)[O-])C[N+](C)(C)C` (configuration not stated) [carnitine-C3], the LC retention time in data set [2] is 6.36 min; in data set [3] it was 7.17 min.

Turning to `Nc1ccn(C2OC(CO)C(O)C2O)c(=O)n1` (configuration not stated) [cytidine], in data set [1], the LC retention time amounted to 0.92 min.

As for `Nc1nc2c(ncn2C2OC(CO)C(O)C2O)c(=O)[nH]1` (configuration not stated) [guanosine], in data set [1], the LC retention time amounted to 4.08 min.

In the case of `O=c1ccn(C2OC(CO)C(O)C2O)c(=O)[nH]1` (configuration not stated) [uridine], in data set [1], the LC retention time came out at 2.04 min.
